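Step 1: Grow cells in 96-well plates. Step 2: Expose to compound for 48 hours at 5 concentrations. Step 3: Interpolate endpoints linearly; if unreached, use highest concentration. TGI denotes the concentration required for complete inhibition of growth.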
Columns and labels:
Assay in all cases: growth of human tumour cells (NCI), 48 h
SF-295 CNS = tested on: SF-295 CNS
HCT-116 colon = tested on: HCT-116 colon
CAKI-1 renal = tested on: CAKI-1 renal
OVCAR-8 ovarian = tested on: OVCAR-8 ovarian
NCI-H522 lung = tested on: NCI-H522 lung
NCI-H23 lung = tested on: NCI-H23 lung
SK-MEL-28 melanoma = tested on: SK-MEL-28 melanoma
ACHN renal = tested on: ACHN renal
EKVX NSCLC = tested on: EKVX NSCLC
SF-268 CNS = tested on: SF-268 CNS
OVCAR-4 ovarian = tested on: OVCAR-4 ovarian
MDA-MB-231 breast = tested on: MDA-MB-231 breast
HOP-62 NSCLC = tested on: HOP-62 NSCLC
UACC-257 melanoma = tested on: UACC-257 melanoma
HT29 colon = tested on: HT29 colon
OVCAR-3 ovarian = tested on: OVCAR-3 ovarian
K-562 leukemia = tested on: K-562 leukemia
UACC-62 melanoma = tested on: UACC-62 melanoma
COLO 205 colon = tested on: COLO 205 colon
CCRF-CEM leukemia = tested on: CCRF-CEM leukemia
HS 578T breast = tested on: HS 578T breast
NCI-H226 lung = tested on: NCI-H226 lung
RXF 393 renal = tested on: RXF 393 renal
MCF7 breast = tested on: MCF7 breast
IGROV1 ovarian = tested on: IGROV1 ovarian
MOLT-4 leukemia = tested on: MOLT-4 leukemia
BT-549 breast = tested on: BT-549 breast
SW-620 colon = tested on: SW-620 colon
HOP-92 NSCLC = tested on: HOP-92 NSCLC
DU-145 prostate = tested on: DU-145 prostate
HL-60(TB) leukemia = tested on: HL-60(TB) leukemia
SNB-19 CNS = tested on: SNB-19 CNS
NCI-H460 lung = tested on: NCI-H460 lung
SNB-75 CNS = tested on: SNB-75 CNS
TK-10 renal = tested on: TK-10 renal
LOX IMVI melanoma = tested on: LOX IMVI melanoma
UO-31 renal = tested on: UO-31 renal
SN12C renal = tested on: SN12C renal
MDA-N = tested on: MDA-N
SF-539 CNS = tested on: SF-539 CNS
A549 NSCLC = tested on: A549 NSCLC
HCT-15 colon = tested on: HCT-15 colon
NCI/ADR-RES ovarian = tested on: NCI/ADR-RES ovarian
OVCAR-5 ovarian = tested on: OVCAR-5 ovarian
M14 melanoma = tested on: M14 melanoma
SK-MEL-2 melanoma = tested on: SK-MEL-2 melanoma
MALME-3M melanoma = tested on: MALME-3M melanoma
T-47D breast = tested on: T-47D breast
U251 CNS = tested on: U251 CNS
A498 renal = tested on: A498 renal
SK-OV-3 ovarian = tested on: SK-OV-3 ovarian
MDA-MB-435 = tested on: MDA-MB-435
HCC-2998 colon = tested on: HCC-2998 colon
PC-3 prostate = tested on: PC-3 prostate
RPMI-8226 leukemia = tested on: RPMI-8226 leukemia
SR leukemia = tested on: SR leukemia
786-0 renal = tested on: 786-0 renal
SK-MEL-5 melanoma = tested on: SK-MEL-5 melanoma

`CCNC(=O)OCC1C2=C(C(=O)C(C)=C(N)C2=O)N2CC3C(N3C)C12OC` (stereo not drawn) showed a TGI (SF-295 CNS) greater than 100 µM, a TGI (HCT-116 colon) greater than 63.5 µM and a TGI (CAKI-1 renal) greater than 100 µM. It also gave a TGI (OVCAR-8 ovarian) greater than 100 µM, a TGI (NCI-H522 lung) of 34.5 µM and a TGI (NCI-H23 lung) of 14.2 µM. For the same compound, the TGI (SK-MEL-28 melanoma) was greater than 100 µM, the TGI (ACHN renal) was greater than 61.9 µM and the TGI (EKVX NSCLC) was greater than 100 µM. It also gave a TGI (SF-268 CNS) greater than 100 µM, a TGI (OVCAR-4 ovarian) greater than 79 µM and a TGI (MDA-MB-231 breast) greater than 100 µM. The TGI (HOP-62 NSCLC) was greater than 100 µM, the TGI (UACC-257 melanoma) was greater than 100 µM and the TGI (HT29 colon) was greater than 100 µM. The TGI (OVCAR-3 ovarian) was greater than 86.2 µM, the TGI (K-562 leukemia) was greater than 100 µM and the TGI (UACC-62 melanoma) was 33.4 µM. The TGI (COLO 205 colon) was greater than 100 µM, the TGI (CCRF-CEM leukemia) was greater than 100 µM and the TGI (HS 578T breast) was greater than 100 µM. It also gave a TGI (NCI-H226 lung) greater than 100 µM, a TGI (RXF 393 renal) greater than 100 µM and a TGI (MCF7 breast) greater than 100 µM. The TGI (IGROV1 ovarian) was 77 µM, the TGI (MOLT-4 leukemia) was greater than 76.3 µM and the TGI (BT-549 breast) was 99.1 µM. It also gave a TGI (SW-620 colon) of 32 µM, a TGI (HOP-92 NSCLC) greater than 100 µM and a TGI (DU-145 prostate) greater than 100 µM. For the same compound, the TGI (HL-60(TB) leukemia) was greater than 44.1 µM, the TGI (SNB-19 CNS) was greater than 100 µM and the TGI (NCI-H460 lung) was 12.1 µM. It also gave a TGI (SNB-75 CNS) greater than 100 µM, a TGI (TK-10 renal) greater than 100 µM and a TGI (LOX IMVI melanoma) greater than 68.7 µM. It also gave a TGI (UO-31 renal) of 64.3 µM, a TGI (SN12C renal) greater than 100 µM and a TGI (MDA-N) greater than 100 µM. It also gave a TGI (SF-539 CNS) greater than 85.1 µM, a TGI (A549 NSCLC) greater than 100 µM and a TGI (HCT-15 colon) of 50.7 µM. It also gave a TGI (NCI/ADR-RES ovarian) greater than 100 µM, a TGI (OVCAR-5 ovarian) greater than 100 µM and a TGI (M14 melanoma) greater than 100 µM. For the same compound, the TGI (SK-MEL-2 melanoma) was 71.2 µM, the TGI (MALME-3M melanoma) was 41.8 µM and the TGI (T-47D breast) was greater than 100 µM. It also gave a TGI (U251 CNS) greater than 100 µM, a TGI (A498 renal) of 77 µM and a TGI (SK-OV-3 ovarian) greater than 100 µM. The TGI (MDA-MB-435) was greater than 100 µM, the TGI (HCC-2998 colon) was 35.3 µM and the TGI (PC-3 prostate) was greater than 100 µM. The TGI (RPMI-8226 leukemia) was greater than 100 µM, the TGI (SR leukemia) was greater than 32.6 µM and the TGI (786-0 renal) was greater than 83 µM. The TGI (SK-MEL-5 melanoma) was 29.5 µM.

Source: PubChem BioAssay (NCI)
